From ChEMBL document CHEMBL1201862, “PubChem BioAssay data set” (2004)
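Where inhibition never reached the appropriate level, the endpoint shown equals the highest concentration tested. Otherwise, values were interpolated linearly from a five-concentration, 48-hour dose response in 96-well plates. GI50 is the concentration that inhibits growth by half.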 Calls of active or inactive are those of the source. No stated cut-off is given here; in the data, active = GI50 up to about 1.1 µM and inactive = higher.

Legend:
Test in all cases: NCI-60 cell line screen, 48 h
SF-539 = tested on: SF-539
SK-MEL-28 = tested on: SK-MEL-28
SK-OV-3 = tested on: SK-OV-3
K562 = tested on: K562
TK-10 = tested on: TK-10
NCI-H226 = tested on: NCI-H226
HCC 2998 = tested on: HCC 2998
CCRF-CEM = tested on: CCRF-CEM
M14 = tested on: M14
CAKI-1 = tested on: CAKI-1
HL-60 = tested on: HL-60
RPMI-8226 = tested on: RPMI-8226
HT-29 = tested on: HT-29
SNB-19 = tested on: SNB-19
EKVX = tested on: EKVX

SMILES	GI50 (SF-539)	GI50 (SK-MEL-28)	GI50 (SK-OV-3)	GI50 (K562)	GI50 (TK-10)	GI50 (NCI-H226)	GI50 (HCC 2998)	GI50 (CCRF-CEM)	GI50 (M14)	GI50 (CAKI-1)	GI50 (HL-60)	GI50 (RPMI-8226)	GI50 (HT-29)	GI50 (SNB-19)	GI50 (EKVX)
CCOC(=O)CNC(=O)c1nc[nH]c1/N=N/N(C)C	> 100 µM (inactive)	> 100 µM (inactive)	> 100 µM (inactive)	> 100 µM (inactive)	> 100 µM (inactive)	> 100 µM (inactive)	> 100 µM (inactive)	> 100 µM (inactive)	> 100 µM (inactive)	> 100 µM (inactive)	> 100 µM (inactive)	> 100 µM (inactive)	> 100 µM (inactive)	> 100 µM (inactive)	> 100 µM (inactive)
CC1=C/C(=C2/N=C(N(C)C)SS2)C(C)=N1.[O-][Cl+3]([O-])([O-])O	> 100 µM (inactive)	> 100 µM (inactive)	> 100 µM (inactive)	42.1 µM (inactive)	> 100 µM (inactive)	> 100 µM (inactive)	> 100 µM (inactive)	–	> 100 µM (inactive)	> 100 µM (inactive)	> 100 µM (inactive)	> 100 µM (inactive)	> 100 µM (inactive)	> 100 µM (inactive)	> 100 µM (inactive)
CCOc1ccccc1NC(=O)CC(C(=O)OC)C(=O)C(=O)OC (stereo unspecified)	> 100 µM (inactive)	> 100 µM (inactive)	> 100 µM (inactive)	> 100 µM (inactive)	> 100 µM (inactive)	> 100 µM (inactive)	> 100 µM (inactive)	> 100 µM (inactive)	> 100 µM (inactive)	> 100 µM (inactive)	> 100 µM (inactive)	> 100 µM (inactive)	> 100 µM (inactive)	> 100 µM (inactive)	> 100 µM (inactive)
N=C(N)NS(=O)(=O)c1ccc(NC(=O)c2cccn3c(=O)c4ccccc4nc23)cc1	> 100 µM (inactive)	91 µM (inactive)	> 100 µM (inactive)	32.3 µM (inactive)	61 µM (inactive)	44.8 µM (inactive)	85.7 µM (inactive)	35.6 µM (inactive)	60.8 µM (inactive)	> 100 µM (inactive)	24.5 µM (inactive)	24.9 µM (inactive)	23.2 µM (inactive)	> 100 µM (inactive)	> 100 µM (inactive)
O=S(=O)(SCc1ccccc1)C(c1ccccc1)c1ccccc1	17.2 µM (inactive)	48.3 µM (inactive)	> 100 µM (inactive)	6.67 µM (inactive)	> 100 µM (inactive)	22.5 µM (inactive)	> 100 µM (inactive)	4.21 µM (inactive)	24 µM (inactive)	31 µM (inactive)	5.52 µM (inactive)	25 µM (inactive)	28.6 µM (inactive)	> 100 µM (inactive)	60.3 µM (inactive)
CCCCCCCCCCCCOC(=S)NC	18.2 µM (inactive)	20 µM (inactive)	27 µM (inactive)	19.6 µM (inactive)	12.8 µM (inactive)	4.25 µM (inactive)	17.5 µM (inactive)	33.4 µM (inactive)	19.7 µM (inactive)	–	27.6 µM (inactive)	16.9 µM (inactive)	18.6 µM (inactive)	33.4 µM (inactive)	20.4 µM (inactive)
CCN(CC)CCC(=O)/C=C/c1ccc(C)cc1	6.32 µM (inactive)	14.8 µM (inactive)	20.7 µM (inactive)	19.5 µM (inactive)	6.85 µM (inactive)	17.1 µM (inactive)	18.6 µM (inactive)	10.1 µM (inactive)	13.7 µM (inactive)	1.83 µM (inactive)	10.8 µM (inactive)	3.99 µM (inactive)	15.1 µM (inactive)	19.3 µM (inactive)	17.1 µM (inactive)
CCOC(=O)NC1C2CC(=O)C(O2)C1OCc1ccccc1 (stereo unspecified)	> 100 µM (inactive)	> 100 µM (inactive)	> 100 µM (inactive)	> 100 µM (inactive)	–	> 100 µM (inactive)	> 100 µM (inactive)	> 100 µM (inactive)	> 100 µM (inactive)	> 100 µM (inactive)	> 100 µM (inactive)	> 100 µM (inactive)	> 100 µM (inactive)	–	–
COc1ccc(N2C(=O)C3c4[nH]c5ccccc5c4C4CCCCC4C3C2=O)cc1 (stereo unspecified)	14.5 µM (inactive)	10.6 µM (inactive)	19.7 µM (inactive)	18.2 µM (inactive)	21.3 µM (inactive)	27.4 µM (inactive)	18.3 µM (inactive)	11.9 µM (inactive)	18 µM (inactive)	51.3 µM (inactive)	16.2 µM (inactive)	32.3 µM (inactive)	23.4 µM (inactive)	50.6 µM (inactive)	17.3 µM (inactive)
CC(=O)Nc1ccc(/C=c2\sc3nnc(CCC(=O)Nc4ccccc4Cl)n3c2=O)cc1	23.5 µM (inactive)	23 µM (inactive)	> 100 µM (inactive)	24.2 µM (inactive)	37.8 µM (inactive)	23.4 µM (inactive)	> 10 µM (inactive)	18.3 µM (inactive)	16.7 µM (inactive)	> 100 µM (inactive)	19.8 µM (inactive)	20.8 µM (inactive)	54.2 µM (inactive)	38.9 µM (inactive)	> 100 µM (inactive)
COc1cc2c(cc1OC)C1[C@@H](c3ccccc3)OCN1CC2 (stereo partly specified)	> 100 µM (inactive)	> 100 µM (inactive)	> 46 µM (inactive)	> 63.1 µM (inactive)	> 100 µM (inactive)	> 100 µM (inactive)	> 100 µM (inactive)	> 77.6 µM (inactive)	> 100 µM (inactive)	> 100 µM (inactive)	54.5 µM (inactive)	44.4 µM (inactive)	> 100 µM (inactive)	> 100 µM (inactive)	> 100 µM (inactive)
C=CCOCCCC(=O)C(=[N+]=[N-])C(=O)OC	> 100 µM (inactive)	> 100 µM (inactive)	> 100 µM (inactive)	> 100 µM (inactive)	> 100 µM (inactive)	> 100 µM (inactive)	> 100 µM (inactive)	> 100 µM (inactive)	> 100 µM (inactive)	> 100 µM (inactive)	> 100 µM (inactive)	> 100 µM (inactive)	> 100 µM (inactive)	> 100 µM (inactive)	–
COc1ccc2nc(C(=O)c3ccccc3)c(C)cc2c1	3.05 µM (inactive)	3.91 µM (inactive)	3.83 µM (inactive)	0.859 µM (active)	11.1 µM (inactive)	23.9 µM (inactive)	6.01 µM (inactive)	4.2 µM (inactive)	3.74 µM (inactive)	7.91 µM (inactive)	3.38 µM (inactive)	6.61 µM (inactive)	3.59 µM (inactive)	9.16 µM (inactive)	5.26 µM (inactive)
CN(C)c1ccc(/C=C2\N=C(c3ccc(N)cc3)OC2=O)cc1	> 100 µM (inactive)	> 100 µM (inactive)	> 100 µM (inactive)	38.8 µM (inactive)	> 100 µM (inactive)	> 100 µM (inactive)	> 100 µM (inactive)	> 100 µM (inactive)	> 100 µM (inactive)	> 100 µM (inactive)	> 100 µM (inactive)	> 100 µM (inactive)	> 100 µM (inactive)	> 100 µM (inactive)	> 100 µM (inactive)
O=C(CC/C(CC(=O)c1ccc(Br)cc1)=N\O)Nc1ccc(Cl)c(Cl)c1	> 100 µM (inactive)	> 100 µM (inactive)	> 100 µM (inactive)	25.4 µM (inactive)	18 µM (inactive)	> 100 µM (inactive)	> 100 µM (inactive)	37.6 µM (inactive)	> 100 µM (inactive)	–	19.6 µM (inactive)	46.1 µM (inactive)	43.5 µM (inactive)	–	29.3 µM (inactive)
Cc1cccc2c3ccc4c(c3n(C)c12)C(=O)C=CC4=O	> 100 µM (inactive)	> 100 µM (inactive)	> 100 µM (inactive)	> 100 µM (inactive)	> 100 µM (inactive)	> 100 µM (inactive)	> 100 µM (inactive)	18.2 µM (inactive)	> 100 µM (inactive)	> 100 µM (inactive)	17.1 µM (inactive)	32.8 µM (inactive)	> 100 µM (inactive)	> 100 µM (inactive)	> 100 µM (inactive)
COc1ccc(/C(Cl)=C(/c2ccc(O)cc2)c2ccc(OCCN(C)C)cc2)cc1	11.5 µM (inactive)	4.38 µM (inactive)	13.1 µM (inactive)	–	19.7 µM (inactive)	16.1 µM (inactive)	16.7 µM (inactive)	–	2.1 µM (inactive)	14.3 µM (inactive)	10.2 µM (inactive)	5.96 µM (inactive)	2.13 µM (inactive)	14.1 µM (inactive)	16.6 µM (inactive)
N#CC(C(=O)CCC(=O)Nc1ccc(Cl)c(Cl)c1)c1ccccc1 (stereo unspecified)	> 100 µM (inactive)	> 100 µM (inactive)	–	> 100 µM (inactive)	–	> 100 µM (inactive)	> 100 µM (inactive)	–	> 100 µM (inactive)	> 100 µM (inactive)	> 100 µM (inactive)	> 100 µM (inactive)	> 100 µM (inactive)	> 100 µM (inactive)	> 100 µM (inactive)
O=C1CC23CCCCCCCCCCC2(C1)CC(=O)C3 (stereo unspecified)	33.7 µM (inactive)	38.7 µM (inactive)	16.8 µM (inactive)	27.5 µM (inactive)	38.5 µM (inactive)	26.5 µM (inactive)	32.7 µM (inactive)	18.9 µM (inactive)	16.6 µM (inactive)	–	17.4 µM (inactive)	19.4 µM (inactive)	18.1 µM (inactive)	22.9 µM (inactive)	30.1 µM (inactive)
